Reference: patent publication US9113629B2, “4-amino-6-(4-substituted-phenyl)-picolinates and 6-amino-2-(4-substituted-phenyl)-pyrimidine-4-carboxylates and their use as herbicides” (DOW AGROSCIENCES LLC, priority 2013, dated 2015)
Like-named read-outs stand apart in the source and are kept apart here.

What was measured:
[1] = tested on: Key Broadleaf Weed and Crop Species; test: Post-emergent Test II herbicidal activity (Table 5); type: in vivo; conditions: post-emergence, 336 h, 14 days after application; for pest or weed control at 70 g/ha: application rate 70 g ai/ha; for pest or weed control at 140 g/ha: application rate 140 g ai/ha
Procedure, shortened: (§1)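 Greenhouse-grown plants at first or second true leaf stage were sprayed post-emergence with compound in acetone/DMSO-based aqueous spray containing crop oil concentrate and surfactant, at 187 L/ha, highest rate plus ½× to 1/16× dilutions. After 14 d, injury was scored visually versus untreated plants, 0 (none) to 100% (complete kill).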

[2] = tested on: Key Grass and Sedge Weeds as well as Grass Crops; test: Post-emergent Test II herbicidal activity (Table 6); type: in vivo; conditions: post-emergence, 336 h; for pest or weed control at 70 g/ha: 70 g ai/ha; for pest or weed control at 140 g/ha: 140 g ai/ha
Procedure, shortened: as §1

[3] = ABUTH: velvetleaf (Abutilon theophrasti), read-out: Visual Growth Reduction (%) 14 Days After Application, ABUTH
[4] = AMARE: redroot pigweed (Amaranthus retroflexus), read-out: Visual Growth Reduction (%) 14 Days After Application, AMARE
[5] = BRSNN: oilseed-rape, canola (Brassica napus), read-out: Visual Growth Reduction (%) 14 Days After Application, BRSNN
[6] = CHEAL: lambsquarters (Chenopodium album), read-out: Visual Growth Reduction (%) 14 Days After Application, CHEAL
[7] = EPHHL: wild poinsettia (Euphorbia heterophylla), read-out: Visual Growth Reduction (%) 14 Days After Application, EPHHL
[8] = HELAN: sunflower (Helianthus annuus), read-out: Visual Growth Reduction (%) 14 Days After Application, HELAN
[9] = VIOTR: wild pansy (Viola tricolor), read-out: Visual Growth Reduction (%) 14 Days After Application, VIOTR
[10] = CYPES: yellow nutsedge (Cyperus esculentus), read-out: Visual Growth Reduction (%) 14 Days After Application, CYPES
[11] = DIGSA: crabgrass (Digitaria sanguinalis), read-out: Visual Growth Reduction (%) 14 Days After Application, DIGSA
[12] = ECHCG: barnyardgrass (Echinochloa crus-galli), read-out: Visual Growth Reduction (%) 14 Days After Application, ECHCG
[13] = ORYSA: rice (Oryza sativa), crop, read-out: Visual Growth Reduction (%) 14 Days After Application, ORYSA
[14] = SETFA: giant foxtail (Setaria faberi), read-out: Visual Growth Reduction (%) 14 Days After Application, SETFA
[15] = SORVU: grain sorghum (Sorghum vulgare), read-out: Visual Growth Reduction (%) 14 Days After Application, SORVU
[16] = TRZSS (wheat, Triticum aestivum), crop, read-out: Visual Growth Reduction (%) 14 Days After Application, TRZSS
[17] = ZEAMX: maize, corn (Zea mays), crop, read-out: Visual Growth Reduction (%) 14 Days After Application, ZEAMX

melting point: 145 to 146 °C
SMILES: Cc1ccc(-c2nc(C(=O)O)c(Cl)c(N)c2F)cc1F [Compound 212]
pest or weed control at 70 g/ha [1, 3]: 95 to 100%
pest or weed control at 140 g/ha [1, 3]: 95 to 100%
pest or weed control at 70 g/ha [1, 4]: 95 to 100%
pest or weed control at 140 g/ha [1, 4]: 95 to 100%
pest or weed control at 70 g/ha [1, 5]: 95 to 100%
pest or weed control at 140 g/ha [1, 5]: 95 to 100%
pest or weed control at 70 g/ha [1, 6]: 95 to 100%
pest or weed control at 140 g/ha [1, 6]: 95 to 100%
pest or weed control at 70 g/ha [1, 7]: 95 to 100%
pest or weed control at 140 g/ha [1, 7]: 95 to 100%
pest or weed control at 70 g/ha [1, 8]: 95 to 100%
pest or weed control at 140 g/ha [1, 8]: 95 to 100%
pest or weed control at 70 g/ha [1, 9]: 0 to 29%
pest or weed control at 140 g/ha [1, 9]: 0 to 29%
pest or weed control at 70 g/ha [2, 10]: 0 to 29%
pest or weed control at 140 g/ha [2, 10]: 30 to 44%
pest or weed control at 70 g/ha [2, 11]: 0 to 29%
pest or weed control at 140 g/ha [2, 11]: 30 to 44%
pest or weed control at 70 g/ha [2, 12]: 75 to 84%
pest or weed control at 140 g/ha [2, 12]: 85 to 94%
pest or weed control at 70 g/ha [2, 13]: 60 to 74%
pest or weed control at 140 g/ha [2, 13]: 60 to 74%
pest or weed control at 70 g/ha [2, 14]: 45 to 59%
pest or weed control at 140 g/ha [2, 14]: 75 to 84%
pest or weed control at 70 g/ha [2, 15]: 60 to 74%
pest or weed control at 140 g/ha [2, 15]: 75 to 84%
pest or weed control at 70 g/ha [2, 16]: 60 to 74%
pest or weed control at 140 g/ha [2, 16]: 60 to 74%
pest or weed control at 70 g/ha [2, 17]: 75 to 84%
pest or weed control at 140 g/ha [2, 17]: 85 to 94%
